Legend:
Assay in all cases: KINOMEscan competition binding
Settings in all cases: compound 10.0 µM
SRPK2 (human) = SRPK2 (human) (UniProt P78362)
LYN (human) = LYN (human) (UniProt P07948)
MAPK14 (human) = MAPK14 (human) (UniProt Q16539)
MAPK6 (human) = MAPK6 (human) (UniProt Q16659)
RPS6KA2 KD2 (human) = RPS6KA2 KD2 (human) (UniProt Q15349)
GRK1 (human) = GRK1 (human) (UniProt Q15835)
PKMYT1 (human) = PKMYT1 (human) (UniProt Q99640)
[1] = test system: KIT (human), P10721 [L576P]
SIK2 (human) = SIK2 (human) (UniProt Q9H0K1)
ULK1 (human) = ULK1 (human) (UniProt O75385)
PDPK1 (human) = PDPK1 (human) (UniProt O15530)
CAMK2G (human) = CAMK2G (human) (UniProt Q13555)
PRKAA2 (human) = PRKAA2 (human) (UniProt P54646)
PAK2 (human) = PAK2 (human) (UniProt Q13177)
PTK2 (human) = PTK2 (human) (UniProt Q05397)
DCLK2 (human) = DCLK2 (human) (UniProt Q8N568)
NIM1 (human) = NIM1 (human) (UniProt Q8IY84)
FLT4 (human) = FLT4 (human) (UniProt P35916)
LRRK2 (human) = LRRK2 (human) (UniProt Q5S007)
PRKACA (human) = PRKACA (human) (UniProt P17612)
MLTK (human) = MLTK (human) (UniProt Q9NYL2)
PAK4 (human) = PAK4 (human) (UniProt O96013)
MAP3K13 (human) = MAP3K13 (human) (UniProt O43283)
NLK (human) = NLK (human) (UniProt Q9UBE8)
INSR (human) = INSR (human) (UniProt P06213)
CSF1R (human) = CSF1R (human) (UniProt P07333)
ICK (human) = ICK (human) (UniProt Q9UPZ9)
STK32C (human) = STK32C (human) (UniProt Q86UX6)
TEK (human) = TEK (human) (UniProt Q02763)
PIM3 (human) = PIM3 (human) (UniProt Q86V86)
PIM2 (human) = PIM2 (human) (UniProt Q9P1W9)
PAK1 (human) = PAK1 (human) (UniProt Q13153)
MAP3K5 (human) = MAP3K5 (human) (UniProt Q99683)
RPS6KA6 KD1 (human) = RPS6KA6 KD1 (human) (UniProt Q9UK32)
BMPR1B (human) = BMPR1B (human) (UniProt O00238)
RPS6KB1 (human) = RPS6KB1 (human) (UniProt P23443)
CDKL5 (human) = CDKL5 (human) (UniProt O76039)
TGFBR2 (human) = TGFBR2 (human) (UniProt P37173)
BMPR2 (human) = BMPR2 (human) (UniProt Q13873)
WEE1 (human) = WEE1 (human) (UniProt P30291)
CSNK1G2 (human) = CSNK1G2 (human) (UniProt P78368)

Chain of PKMYT1 (human) (Q99640 whole entry, looked up): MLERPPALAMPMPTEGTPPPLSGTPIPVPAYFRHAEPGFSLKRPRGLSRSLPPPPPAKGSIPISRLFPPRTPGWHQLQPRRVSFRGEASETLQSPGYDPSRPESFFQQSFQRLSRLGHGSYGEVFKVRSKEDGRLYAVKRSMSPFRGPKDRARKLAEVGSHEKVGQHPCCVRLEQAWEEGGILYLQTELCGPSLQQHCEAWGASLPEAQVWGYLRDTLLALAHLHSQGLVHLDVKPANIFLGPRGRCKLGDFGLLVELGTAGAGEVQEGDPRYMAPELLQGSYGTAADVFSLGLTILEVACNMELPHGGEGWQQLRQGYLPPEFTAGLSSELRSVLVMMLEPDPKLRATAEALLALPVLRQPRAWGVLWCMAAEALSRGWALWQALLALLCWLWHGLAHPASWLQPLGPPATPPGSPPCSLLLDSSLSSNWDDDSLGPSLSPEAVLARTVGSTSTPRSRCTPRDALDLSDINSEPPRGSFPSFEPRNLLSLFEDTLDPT
Chain of SIK2 (human) (Q9H0K1 whole entry, looked up): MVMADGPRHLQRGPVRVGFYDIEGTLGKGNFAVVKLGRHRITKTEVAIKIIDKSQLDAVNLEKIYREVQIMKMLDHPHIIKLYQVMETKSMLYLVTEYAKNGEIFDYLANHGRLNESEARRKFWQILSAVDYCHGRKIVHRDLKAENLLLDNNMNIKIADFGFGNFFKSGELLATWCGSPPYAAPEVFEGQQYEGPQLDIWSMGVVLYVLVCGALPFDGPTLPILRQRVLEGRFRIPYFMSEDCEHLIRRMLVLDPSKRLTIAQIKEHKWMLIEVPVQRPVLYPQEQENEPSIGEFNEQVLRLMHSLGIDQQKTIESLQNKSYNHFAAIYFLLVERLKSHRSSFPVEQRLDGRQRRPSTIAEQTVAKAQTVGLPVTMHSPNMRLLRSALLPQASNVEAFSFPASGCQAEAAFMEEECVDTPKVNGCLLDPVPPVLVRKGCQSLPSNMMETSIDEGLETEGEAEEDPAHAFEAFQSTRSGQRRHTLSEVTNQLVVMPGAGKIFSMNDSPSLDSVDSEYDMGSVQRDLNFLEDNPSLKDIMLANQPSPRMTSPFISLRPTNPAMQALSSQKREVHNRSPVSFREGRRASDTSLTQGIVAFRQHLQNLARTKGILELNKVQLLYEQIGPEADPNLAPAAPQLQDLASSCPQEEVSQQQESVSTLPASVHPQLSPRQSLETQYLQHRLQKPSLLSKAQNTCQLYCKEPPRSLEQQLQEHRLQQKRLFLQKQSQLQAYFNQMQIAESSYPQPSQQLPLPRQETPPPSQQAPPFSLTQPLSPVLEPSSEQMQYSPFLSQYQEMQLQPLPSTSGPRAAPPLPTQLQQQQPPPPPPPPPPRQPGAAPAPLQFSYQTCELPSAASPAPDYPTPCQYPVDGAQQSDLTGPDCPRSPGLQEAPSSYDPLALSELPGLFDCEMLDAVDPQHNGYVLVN
Chain of MLTK (human) (Q9NYL2 whole entry, looked up): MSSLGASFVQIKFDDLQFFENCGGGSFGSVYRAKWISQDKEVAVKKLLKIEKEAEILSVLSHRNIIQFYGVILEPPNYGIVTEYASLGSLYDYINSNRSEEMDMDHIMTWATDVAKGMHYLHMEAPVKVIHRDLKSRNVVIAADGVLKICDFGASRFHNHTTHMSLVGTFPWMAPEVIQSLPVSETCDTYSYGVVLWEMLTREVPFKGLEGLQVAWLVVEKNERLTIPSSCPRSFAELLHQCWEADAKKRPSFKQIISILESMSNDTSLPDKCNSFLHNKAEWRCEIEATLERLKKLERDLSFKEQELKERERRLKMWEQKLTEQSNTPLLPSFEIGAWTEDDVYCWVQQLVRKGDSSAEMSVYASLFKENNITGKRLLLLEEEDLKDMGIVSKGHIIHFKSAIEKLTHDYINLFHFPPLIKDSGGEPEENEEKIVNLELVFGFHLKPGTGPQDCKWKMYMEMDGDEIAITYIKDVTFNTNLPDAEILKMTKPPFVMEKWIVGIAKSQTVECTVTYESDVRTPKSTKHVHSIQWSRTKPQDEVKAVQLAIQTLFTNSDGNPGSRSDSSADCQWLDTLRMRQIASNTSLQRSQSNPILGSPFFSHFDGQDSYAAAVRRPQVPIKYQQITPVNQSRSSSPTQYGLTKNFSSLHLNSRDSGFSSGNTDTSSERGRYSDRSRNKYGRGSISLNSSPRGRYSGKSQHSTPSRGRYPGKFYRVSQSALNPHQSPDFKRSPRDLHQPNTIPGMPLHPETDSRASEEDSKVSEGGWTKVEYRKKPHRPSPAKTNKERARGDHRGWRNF
Chain of PAK4 (human) (O96013 whole entry, looked up): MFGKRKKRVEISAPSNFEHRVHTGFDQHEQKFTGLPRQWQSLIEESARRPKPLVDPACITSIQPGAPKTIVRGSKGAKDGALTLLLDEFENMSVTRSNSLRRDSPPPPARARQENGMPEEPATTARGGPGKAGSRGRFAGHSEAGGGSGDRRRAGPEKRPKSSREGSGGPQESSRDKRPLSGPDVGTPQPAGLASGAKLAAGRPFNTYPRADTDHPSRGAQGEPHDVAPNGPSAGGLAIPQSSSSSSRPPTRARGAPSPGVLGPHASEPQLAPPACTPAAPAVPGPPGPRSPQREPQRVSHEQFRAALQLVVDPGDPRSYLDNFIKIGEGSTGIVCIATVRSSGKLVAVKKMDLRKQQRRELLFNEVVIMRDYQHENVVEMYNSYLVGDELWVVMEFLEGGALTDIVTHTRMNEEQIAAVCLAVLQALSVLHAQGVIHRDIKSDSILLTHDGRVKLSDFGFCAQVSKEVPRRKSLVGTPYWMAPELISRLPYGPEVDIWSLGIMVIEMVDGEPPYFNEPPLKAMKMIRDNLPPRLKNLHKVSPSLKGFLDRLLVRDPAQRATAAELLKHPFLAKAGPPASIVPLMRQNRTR
Chain of WEE1 (human) (P30291 whole entry, looked up): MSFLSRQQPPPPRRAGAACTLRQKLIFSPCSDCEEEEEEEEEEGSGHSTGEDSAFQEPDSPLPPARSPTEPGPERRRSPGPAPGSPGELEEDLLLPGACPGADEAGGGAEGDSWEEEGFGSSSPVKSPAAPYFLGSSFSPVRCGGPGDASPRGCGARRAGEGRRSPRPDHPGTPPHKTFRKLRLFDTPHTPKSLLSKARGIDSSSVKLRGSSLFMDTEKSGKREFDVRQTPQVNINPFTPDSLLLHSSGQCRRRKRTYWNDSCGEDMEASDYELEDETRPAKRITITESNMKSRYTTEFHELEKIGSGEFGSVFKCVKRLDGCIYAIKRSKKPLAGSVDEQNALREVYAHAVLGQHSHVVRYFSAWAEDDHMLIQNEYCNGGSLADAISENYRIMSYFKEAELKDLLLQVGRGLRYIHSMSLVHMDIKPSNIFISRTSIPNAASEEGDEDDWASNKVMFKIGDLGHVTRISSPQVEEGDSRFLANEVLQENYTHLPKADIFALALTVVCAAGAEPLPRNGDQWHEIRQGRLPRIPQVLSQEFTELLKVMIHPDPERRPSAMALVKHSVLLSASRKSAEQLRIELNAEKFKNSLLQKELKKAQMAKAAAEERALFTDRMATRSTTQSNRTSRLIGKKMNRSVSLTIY
Chain of CDKL5 (human) (O76039 whole entry, looked up): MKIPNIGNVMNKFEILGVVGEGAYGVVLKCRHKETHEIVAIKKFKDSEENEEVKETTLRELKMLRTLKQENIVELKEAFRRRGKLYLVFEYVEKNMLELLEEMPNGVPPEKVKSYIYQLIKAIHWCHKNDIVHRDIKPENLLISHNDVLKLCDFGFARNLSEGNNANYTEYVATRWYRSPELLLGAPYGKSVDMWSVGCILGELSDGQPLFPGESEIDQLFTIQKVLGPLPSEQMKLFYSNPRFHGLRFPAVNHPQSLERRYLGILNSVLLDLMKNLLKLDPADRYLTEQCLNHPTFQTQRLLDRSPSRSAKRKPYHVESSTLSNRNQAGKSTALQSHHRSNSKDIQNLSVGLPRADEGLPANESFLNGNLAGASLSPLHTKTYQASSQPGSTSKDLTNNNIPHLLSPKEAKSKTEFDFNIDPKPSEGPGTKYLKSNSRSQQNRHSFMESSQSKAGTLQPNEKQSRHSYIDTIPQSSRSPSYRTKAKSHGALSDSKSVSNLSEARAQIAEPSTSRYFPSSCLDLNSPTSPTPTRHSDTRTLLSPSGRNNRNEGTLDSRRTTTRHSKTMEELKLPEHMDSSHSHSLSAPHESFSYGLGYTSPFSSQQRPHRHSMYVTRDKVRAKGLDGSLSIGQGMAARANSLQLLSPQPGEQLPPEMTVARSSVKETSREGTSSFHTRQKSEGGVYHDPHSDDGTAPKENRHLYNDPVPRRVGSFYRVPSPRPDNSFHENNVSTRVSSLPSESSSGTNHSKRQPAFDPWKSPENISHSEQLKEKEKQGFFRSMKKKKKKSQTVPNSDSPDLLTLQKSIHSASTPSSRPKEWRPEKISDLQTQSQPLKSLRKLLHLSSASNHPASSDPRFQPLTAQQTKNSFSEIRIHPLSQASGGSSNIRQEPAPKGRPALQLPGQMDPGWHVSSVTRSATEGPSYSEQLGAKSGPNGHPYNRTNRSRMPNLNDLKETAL
Chain of ICK (human) (Q9UPZ9 whole entry, looked up): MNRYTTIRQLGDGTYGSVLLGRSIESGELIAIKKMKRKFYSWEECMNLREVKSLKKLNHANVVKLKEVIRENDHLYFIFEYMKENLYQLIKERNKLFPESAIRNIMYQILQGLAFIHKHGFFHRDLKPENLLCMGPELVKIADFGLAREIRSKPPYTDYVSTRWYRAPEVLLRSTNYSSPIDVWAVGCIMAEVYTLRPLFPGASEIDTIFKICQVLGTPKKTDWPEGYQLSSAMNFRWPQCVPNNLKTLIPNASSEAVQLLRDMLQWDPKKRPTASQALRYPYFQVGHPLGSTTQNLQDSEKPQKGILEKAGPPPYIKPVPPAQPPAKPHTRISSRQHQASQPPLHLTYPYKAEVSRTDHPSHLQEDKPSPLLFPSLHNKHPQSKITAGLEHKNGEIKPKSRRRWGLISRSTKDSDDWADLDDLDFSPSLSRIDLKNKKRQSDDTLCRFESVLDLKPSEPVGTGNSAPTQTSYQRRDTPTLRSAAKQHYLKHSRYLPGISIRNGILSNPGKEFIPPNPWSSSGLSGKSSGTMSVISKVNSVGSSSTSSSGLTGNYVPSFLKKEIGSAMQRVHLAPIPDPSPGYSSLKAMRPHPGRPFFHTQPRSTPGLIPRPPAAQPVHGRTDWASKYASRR

CC(C)n1nc(-c2cc3cc(O)ccc3[nH]2)c2c(N)ncnc21
kinase still bound, per cent of control (SRPK2 (human)): 100%
kinase still bound, per cent of control (LYN (human)): 12%
kinase still bound, per cent of control (MAPK14 (human)): 95%
kinase still bound, per cent of control (MAPK6 (human)): 52%
kinase still bound, per cent of control (RPS6KA2 KD2 (human)): 62%
kinase still bound, per cent of control (GRK1 (human)): 16%
kinase still bound, per cent of control (PKMYT1 (human)): 37%
kinase still bound, per cent of control [1]: 0.8%
kinase still bound, per cent of control (SIK2 (human)): 9.4%
kinase still bound, per cent of control (ULK1 (human)): 86%
kinase still bound, per cent of control (PDPK1 (human)): 96%
kinase still bound, per cent of control (CAMK2G (human)): 56%
kinase still bound, per cent of control (PRKAA2 (human)): 67%
kinase still bound, per cent of control (PAK2 (human)): 31%
kinase still bound, per cent of control (PTK2 (human)): 100%
kinase still bound, per cent of control (DCLK2 (human)): 100%
kinase still bound, per cent of control (NIM1 (human)): 88%
kinase still bound, per cent of control (FLT4 (human)): 0.3%
kinase still bound, per cent of control (LRRK2 (human)): 4.8%
per cent of control (PRKACA (human)): 47%
kinase still bound, per cent of control (MLTK (human)): 29%
kinase still bound, per cent of control (PAK4 (human)): 13%
kinase still bound, per cent of control (MAP3K13 (human)): 100%
kinase still bound, per cent of control (NLK (human)): 10%
kinase still bound, per cent of control (INSR (human)): 100%
kinase still bound, per cent of control (CSF1R (human)): 33%
kinase still bound, per cent of control (ICK (human)): 58%
kinase still bound, per cent of control (STK32C (human)): 69%
kinase still bound, per cent of control (TEK (human)): 21%
kinase still bound, per cent of control (PIM3 (human)): 31%
kinase still bound, per cent of control (PIM2 (human)): 0.6%
kinase still bound, per cent of control (PAK1 (human)): 52%
kinase still bound, per cent of control (MAP3K5 (human)): 100%
kinase still bound, per cent of control (RPS6KA6 KD1 (human)): 4.6%
kinase still bound, per cent of control (BMPR1B (human)): 0.1%
kinase still bound, per cent of control (RPS6KB1 (human)): 57%
per cent of control (CDKL5 (human)): 100%
kinase still bound, per cent of control (TGFBR2 (human)): 2.8%
kinase still bound, per cent of control (BMPR2 (human)): 0.1%
kinase still bound, per cent of control (WEE1 (human)): 72%

CCC(=O)N1CCN(c2ccc(-n3c(=O)ccc4cnc5ccc(-c6cnc7ccccc7c6)cc5c43)cc2C(F)(F)F)CC1
kinase still bound, per cent of control (SRPK2 (human)): 100%
kinase still bound, per cent of control (LYN (human)): 79%
kinase still bound, per cent of control (MAPK14 (human)): 90%
kinase still bound, per cent of control (MAPK6 (human)): 1.8%
kinase still bound, per cent of control (RPS6KA2 KD2 (human)): 85%
kinase still bound, per cent of control (GRK1 (human)): 99%
kinase still bound, per cent of control (PKMYT1 (human)): 52%
kinase still bound, per cent of control [1]: 48%
kinase still bound, per cent of control (SIK2 (human)): 23%
kinase still bound, per cent of control (ULK1 (human)): 100%
kinase still bound, per cent of control (PDPK1 (human)): 100%
kinase still bound, per cent of control (CAMK2G (human)): 79%
kinase still bound, per cent of control (PRKAA2 (human)): 74%
kinase still bound, per cent of control (PAK2 (human)): 100%
kinase still bound, per cent of control (PTK2 (human)): 14%
kinase still bound, per cent of control (DCLK2 (human)): 100%
kinase still bound, per cent of control (NIM1 (human)): 84%
kinase still bound, per cent of control (FLT4 (human)): 74%
kinase still bound, per cent of control (LRRK2 (human)): 81%
per cent of control (PRKACA (human)): 79%
kinase still bound, per cent of control (MLTK (human)): 22%
kinase still bound, per cent of control (PAK4 (human)): 100%
kinase still bound, per cent of control (MAP3K13 (human)): 100%
kinase still bound, per cent of control (NLK (human)): 25%
kinase still bound, per cent of control (INSR (human)): 7.6%
kinase still bound, per cent of control (CSF1R (human)): 24%
kinase still bound, per cent of control (ICK (human)): 100%
kinase still bound, per cent of control (STK32C (human)): 100%
kinase still bound, per cent of control (TEK (human)): 19%
kinase still bound, per cent of control (CSNK1G2 (human)): 100%
kinase still bound, per cent of control (PIM3 (human)): 96%
kinase still bound, per cent of control (PIM2 (human)): 62%
kinase still bound, per cent of control (PAK1 (human)): 73%
kinase still bound, per cent of control (MAP3K5 (human)): 100%
kinase still bound, per cent of control (RPS6KA6 KD1 (human)): 66%
kinase still bound, per cent of control (BMPR1B (human)): 100%
per cent of control (CDKL5 (human)): 100%
kinase still bound, per cent of control (TGFBR2 (human)): 77%
kinase still bound, per cent of control (BMPR2 (human)): 85%
kinase still bound, per cent of control (WEE1 (human)): 42%

COC(=O)Nc1ccc(-c2nc(N3CCOCC3)c3cnn(C4CCN(C(=O)OC)CC4)c3n2)cc1
kinase still bound, per cent of control (SRPK2 (human)): 100%
kinase still bound, per cent of control (LYN (human)): 92%
kinase still bound, per cent of control (MAPK14 (human)): 80%
kinase still bound, per cent of control (MAPK6 (human)): 100%
kinase still bound, per cent of control (RPS6KA2 KD2 (human)): 100%
kinase still bound, per cent of control (GRK1 (human)): 100%
kinase still bound, per cent of control (PKMYT1 (human)): 100%
kinase still bound, per cent of control [1]: 100%
kinase still bound, per cent of control (SIK2 (human)): 100%
kinase still bound, per cent of control (ULK1 (human)): 84%
kinase still bound, per cent of control (PDPK1 (human)): 85%
kinase still bound, per cent of control (CAMK2G (human)): 93%
kinase still bound, per cent of control (PRKAA2 (human)): 100%
kinase still bound, per cent of control (PAK2 (human)): 91%
kinase still bound, per cent of control (PTK2 (human)): 94%
kinase still bound, per cent of control (DCLK2 (human)): 95%
kinase still bound, per cent of control (NIM1 (human)): 100%
kinase still bound, per cent of control (FLT4 (human)): 92%
kinase still bound, per cent of control (LRRK2 (human)): 91%
per cent of control (PRKACA (human)): 100%
kinase still bound, per cent of control (MLTK (human)): 97%
kinase still bound, per cent of control (PAK4 (human)): 100%
kinase still bound, per cent of control (MAP3K13 (human)): 100%
kinase still bound, per cent of control (NLK (human)): 99%
kinase still bound, per cent of control (INSR (human)): 72%
kinase still bound, per cent of control (CSF1R (human)): 90%
kinase still bound, per cent of control (ICK (human)): 85%
kinase still bound, per cent of control (STK32C (human)): 89%
kinase still bound, per cent of control (TEK (human)): 100%
kinase still bound, per cent of control (CSNK1G2 (human)): 98%
kinase still bound, per cent of control (PIM3 (human)): 100%
kinase still bound, per cent of control (PIM2 (human)): 100%
kinase still bound, per cent of control (PAK1 (human)): 95%
kinase still bound, per cent of control (MAP3K5 (human)): 100%
kinase still bound, per cent of control (RPS6KA6 KD1 (human)): 86%
kinase still bound, per cent of control (BMPR1B (human)): 78%
kinase still bound, per cent of control (RPS6KB1 (human)): 86%
per cent of control (CDKL5 (human)): 100%
kinase still bound, per cent of control (TGFBR2 (human)): 78%
kinase still bound, per cent of control (BMPR2 (human)): 92%
kinase still bound, per cent of control (WEE1 (human)): 100%

Reference: the kinase profiling compilation of Christmann-Franck et al. (2016)
